From patent publication US12473310B2, “Vitamin D3 phosphate and pharmaceutically acceptable salts thereof, pharmaceutical compositions comprising the compound and methods for preparing the compound” (King's College London, priority 2020, dated 2025)
Values after ≈ are worked out from the molar mass of the structure shown. Where a name gives a salt, the structure may show the parent alone. Read-outs that look alike come from different tables or passages of the source.

Key:
physchem [1] = type: physicochemical; settings: for % Recovery, chemical stability with extraction fluid: 0.091 mg/mL; for recovery at 0.091 mg/mL: chemical stability with extraction fluid
Experimental: To validate the method of test agent recovery from the skin, solutions (1.0 mg/mL) of cholecalciferol phosphate were prepared in 100% PG and 100% water and the same concentration of cholecalciferol was prepared in 100% PG and PG:EtOH (50:50). The precise concentrations in these samples were analysed by HPLC using the method described above.
To assess the chemical stability of cholecalciferol and cholecalciferol phosphate in the donor solutions used in the Franz cell experiments, the 1.0 mg/mL of the samples prepared in the different solvents were incubated in a water bath at 37° C. for 24 h. In addition, to understand the chemical stability of cholecalciferol and cholecalciferol phosphate in the extraction solvents used in the skin deposition studies, a 1 mL of the sample of the drug in the different solvents was added into 10 mL of extraction fluid (PG:EtOH, 50:50 for cholecalciferol and MeOH:water, 90:10 for cholecalciferol phosphate). Samples with the extraction fluid were left in the water bath overnight at 37° C. and the sample concentration was analysed by HPLC method described above.

[2] = skin permeation and deposition, automated Franz diffusion cell (Example 5); type: in vitro ADME; settings: PG formulation
Experimental: For the final formulation, 61.5 mg of cholecalciferol phosphate acid in 4.1 mL hexane was added into 1.435 mL DURO-TAK 87-2051 (51.5 w/v %) with 16.4 μL α-tocopherol and 20.5 μL diethylene glycol monoethyl ether. Likewise, 120 mg of cholecalciferol phosphate disodium salt in 35.2 mL MeOH:water (10:1) was added to 1.336 mL of DURO-TAK 87-2051 (51.5 w/v %) in 56 mL ethyl acetate with 32 mg of α-tocopherol and 48 μL diethylene glycol monoethyl ether. Each formulation was spread evenly on the 10×10 cm patch tray and left overnight to dry completely. Following the complete drying of the solvents, the adhesive layer was covered by the M3 Release layer (SCOTCHPAK 9755, UK), compressed, and then cut using a 34 mm circular manual die cutter (SCP Super Cutting Press, UK).
Subsequently, 1 mL aliquots were applied to the skin.
The automated Franz diffusion cell was used to investigate the permeation of cholecalciferol, cholecalciferol phosphate salt and cholecalciferol phosphate acid through porcine skin. Fresh white adult porcine ears were obtained from a local butcher (Ginger Pig, UK). Any damaged ears were discarded. The ears were removed from the carcass after hair removal. […] The collected receiver fluid was analysed by HPLC methods described previously.
At the end of the transport studies, the Franz cells were dismantled, and the donor solution was collected into bottles containing 10 mL of extraction fluid; MeOH for cholecalciferol, cholecalciferol phosphate acid and MeOH:water (90:10) for cholecalciferol phosphate salt, by wiping the surface of the skin and the inside of the donor compartment with two wet and then two dry cotton buds. […] Each collection was analysed by the HPLC method described above. Thus, the amount of each test agent on the surface of the skin, deposited in the skin, and passed into the receiver fluid was determined so that % mass recovery per cm^2 per skin could be calculated and drug deposition profiles could be obtained.

[3] = solubility in donor solution and thermodynamic activity (Table 4); type: physicochemical; settings: for solubility: organic solvent or mixture, thermodynamic from solid; for Thermodynamic activity: proposed concentration in permeation studies relative to solubility
physchem [4] = type: physicochemical
Experimental: To validate the method of test agent recovery from the skin, solutions (1.0 mg/mL) of each vitamin D analogue were prepared in 100% PG. The precise concentrations in these samples were analysed by HPLC method described above. To assess the chemical stability of each test agent in the donor solutions used in the Franz cell experiments, 1.0 mg/mL of the samples prepared in 100% PG were incubated in a water bath at 37° C. for 24 h. In addition, to understand the chemical stability of each test agent in the extraction solvents used in the skin deposition studies, 1 mL of the drug sample in 100% PG was added into 10 mL of extraction fluid (MeOH for cholecalciferol, cholecalciferol phosphate acid, and MeOH:water, 90:10 for cholecalciferol phosphate disodium salt). Samples in PG (n=3) and samples in PG with the extraction fluid (n=3) were left in the water bath overnight at 37° C. and the sample concentration was analysed by the HPLC method described above. To assess whether the HPLC fluid had been impacted by any proteins that had leaked out of the skin, PG:water, 80:20 was added to donor and receiver chambers of porcine skin loaded Franz cells (n=3). A 5 mL sample of the receiver fluid was collected, and 25 μL of each test solution was added to this fluid and diluted to MeOH (1:1) and analysed by the HPLC method described previously. To verify the percentage of drug that could be recovered from the skin tissue, the skin sections were dermatomed (1 mm thickness) (n=3). The test solutions were spiked (50 μL) into a sample bottle containing the chopped dermatomed skin tissue. The samples containing the spiked drugs were left for 1 h for the drugs to absorb into the tissues. After the 1 h incubation period, 5 mL of extraction fluid (MeOH for cholecalciferol, cholecalciferol phosphate acid, and MeOH:water, 90:10 for cholecalciferol phosphate disodium salt) was added into each piece of the dermatomed skin tissue, then incubated in a shaking water bath for 1 h. The solutions were then tissue lysed by a tissue lyser for 40 min and homogenised by Ultra Turrax for 1 min and filtered using 0.45 μm syringe filters, centrifuged for 10 min at 13,000 rpm, and analysed by the HPLC method described above. In terms of cholecalciferol phosphate acid, after 1 h incubation and adding 5 mL extraction fluid, immediately the solutions with skin tissues were tissue lysed by a tissue lyser for 15 min. The solutions were then centrifuged for 10 min at 13,000 rpm and the supernatants were analysed by the HPLC method described above.

Compound	% Recovery, chemical stability with extraction fluid (physchem [1]) [%]	recovery at 0.091 mg/mL (physchem [1]; % Recovery) [%]	recovery at 24 h, 1 mg/mL (physchem [1]; % Recovery, chemical stability without extraction fluid) [%]	transdermal permeation through the skin ([2]; 1.0 mm porcine skin, 24 h)	solubility [3] [µg/mL]	Thermodynamic activity [3]	recovery at 0.091 mg/mL (physchem [4]) [%]	recovery at 24 h, 1 mg/mL (physchem [4]) [%]	degradation (physchem [1]; 24 h, 1 mg/mL) [%]	fold higher transdermal permeation through the skin compared to cholecalciferol ([2]; phosphate disodium salt) [fold]	solubility ([3]; PG, read-out: Solubility in PG) [µg/mL]	% Recovery, chemical stability with extraction fluid (physchem [4]; 0.091 mg/mL) [%]	% Recovery, chemical stability without extraction fluid (physchem [4]; 24 h, 1 mg/mL) [%]
C=C1CC[C@H](O)C/C1=C/C=C1\CCC[C@]2(C)[C@@H]([C@H](C)CCCC(C)C)CC[C@@H]12 [Cholecalciferol, cholecalciferol, reference compound]	90.52 ± 0.42	91.76 ± 0.87	90	1,245.2 IU	3150 (≈ 8.19 mM)	0.8	91.97 ± 0.63	77.5 ± 7.05					
C=C1CC[C@H](OP(=O)(O)O)C/C1=C/C=C1\CCC[C@@]2(C)C1CC[C@@H]2[C@H](C)CCCC(C)C (stereo partly shown) [Cholecalciferol phosphate disodium salt, cholecalciferol phosphate disodium salt]	76.01 ± 1.42	95.2 ± 5.88				1.0			20	~35.02	2500	95.18 ± 4.82	81.87 ± 2.46
